Our source for the melting point values is patent US9497965B2, “Pesticidal compounds” (Syngenta Participations AG, priority 2011, dated 2016).

Each structure is given as a SMILES string.

As a reminder, the melting point is the temperature, or range, at which the solid turns liquid. `O=C(NCC1(c2c(Cl)cc(Cl)cc2Cl)CC1)c1ncccc1C(F)(F)F` [A.29, N-[[1-(2,4,6-trichlorophenyl)cyclopropyl]methyl]-3-(trifluoromethyl)pyridine-2-carboxamide] showed a melting point of 142 to 144 °C.

The molecule `N#Cc1cc(F)c(C2(CNC(=O)c3ccccc3C(F)(F)F)CC2)c(F)c1` [A.57, N-[[1-(4-cyano-2,6-difluoro-phenyl)cyclopropyl]methyl]-2-(trifluoromethyl)benzamide] had a melting point of 100 to 102 °C.
